# Values of other authors in article PMC8152572 (Chemical Science, 2020).
# Test system: scFv-SM3
# Details: SM3 antibody, comparison of 2a, 2b and 2c
substance,measurement,value
APDTRP [Compound 2c],binding to SM3 (in words),worse binding to the naked derivative 2c
